Measured values taken from patent publication US20240002332A1, “Small Molecule Inhibitors of SARS-CoV-2 Infections” (priority 2020, published 2024).

Columns and labels:
SARS-CoV-2 = conditions: EIDD-2801 250 mpk BID; Compound P3 60 mpk BID
Excerpt: EIDD-2801 (molnupiravir) was chosen as the positive control at 250 mpk BID oral dose.

[1] = Rat liver microsomal (RLM) stability; conditions: rat, microsomes
[2] = Pharmacokinetics in mice IV 3 and PO 10 mg/kg; plasma, lung and liver; conditions: for Kp: AUC ratio (tissue/plasma)
[3] = mice, Compound P3 dosed PO 10 mg/kg, Liver
[4] = mice, Compound P3 dosed PO 10 mg/kg, Lung
[5] = mice, Compound P3 dosed PO 10 mg/kg, Plasma
[6] = mouse Plasma, Compound P3 dosed IV 3 mg/kg
[7] = mouse Plasma, Compound P3 dosed PO 10 mg/kg

In the case of `O=C(Nc1ccc([N+](=O)[O-])cc1Cl)c1cc(Cl)ccc1OC(=O)N1CCNCC1` [Compound P3, 4-chloro-2-((2-chloro-4-nitrophenyl)carbamoyl)phenyl piperazine-1-carboxylate], the “IHC immunoreactivity staining in the right lung” value (SARS-CoV-2) is reported as “lowered in severity”, the half-life [1] is reported as greater than 30 min and the clearance ([2]; mice) is reported as “moderate”. For the same molecule, the AUC0-INF/D [2, 3] was 65.7 kg·ng·h/mL/mg, the “AUC_% Extrap” value [2, 3] was 0.9% and the Cmax/D [2, 3] was 24 kg·ng/mL/mg. For the same molecule, the AUC0-INF/D [2, 4] was 24400 kg·ng·h/mL/mg, the “AUC_% Extrap” value [2, 4] was 0.2% and the Cmax/D [2, 4] was 4420 kg·ng/mL/mg. For the same molecule, the Tmax [2, 4] was 90 min, the t1/2 [2, 4] was 2.8 h and the AUC0-INF [2, 5] was 3530 ng·h/mL. For the same molecule, the AUC0-INF/D [2, 5] was 353 kg·ng·h/mL/mg, the “AUC_% Extrap” value [2, 5] was 0.5% and the Cmax [2, 5] was 606 ng/mL. The Cmax/D [2, 5] was 60.6 kg·ng/mL/mg, the AUCINF/D [2, 6] was 426 kg·ng·h/mL/mg and the AUCLast/D [2, 6] was 425 kg·ng·h/mL/mg. It also gave an AUC_%Extrap_obs [2, 6] of 0.06%, a Clast [2, 6] of 0.163 ng/mL and a Cmax/D [2, 6] of 154 kg·ng/mL/mg. The Tlast [2, 6] was 48 h, the AUCINF/D [2, 7] was 353 kg·ng·h/mL/mg and the AUCINF_obs [2, 7] was 3530 ng·h/mL. It also gave an AUCLast/D [2, 7] of 351 kg·ng·h/mL/mg, an AUC_%Extrap_obs [2, 7] of 0.5% and a Clast [2, 7] of 5.23 ng/mL. For the same molecule, the Cmax/D [2, 7] was 60.6 kg·ng/mL/mg, the F [2, 7] was 83% and the Tlast [2, 7] was 30 h. It also gave a bioavailability ([2]; mouse, in vivo, 10 mg/kg) of 83%, a C0 ([2]; mouse, in vivo, iv, 3 mg/kg) of 536 ng/mL and a Tmax ([2]; mouse, in vivo, iv, 3 mg/kg) of 4.98 min. It also gave a Vd ([2]; mouse, in vivo, iv, 3 mg/kg) of 8.9 L/kg, a clearance ([2]; mouse, in vivo, iv, 3 mg/kg) of 39 mL/min/kg and an AUC(0-inf) ([2]; mouse, in vivo, iv, 3 mg/kg, AUCINF_obs, mouse Plasma, Compound P3 dosed IV 3 mg/kg) of 1280 ng·h/mL. The AUC(0-t) ([2]; mouse, in vivo, iv, 3 mg/kg, AUClast, mouse Plasma, Compound P3 dosed IV 3 mg/kg) was 1280 ng·h/mL, the Cmax ([2]; mouse, in vivo, iv, 3 mg/kg, Cmax, mouse Plasma, Compound P3 dosed IV 3 mg/kg) was 461 ng/mL and the half-life ([2]; mouse, in vivo, iv, 3 mg/kg, t½, mouse Plasma, Compound P3 dosed IV 3 mg/kg) was 198 min. The AUC(0-inf) ([2]; mouse, in vivo, po, 10 mg/kg, AUC0-INF, mice, Compound P3 dosed PO 10 mg/kg, Liver) was 657 ng·h/mL, the AUC(0-inf) ([2]; mouse, in vivo, po, 10 mg/kg, AUC0-INF, mice, Compound P3 dosed PO 10 mg/kg, Lung) was 244000 ng·h/mL and the AUC(0-t) ([2]; mouse, in vivo, po, 10 mg/kg, AUC0-last, mice, Compound P3 dosed PO 10 mg/kg, Liver) was 651 ng·h/mL. It also gave an AUC(0-t) ([2]; mouse, in vivo, po, 10 mg/kg, AUC0-last, mice, Compound P3 dosed PO 10 mg/kg, Lung) of 244000 ng·h/mL, an AUC(0-t) ([2]; mouse, in vivo, po, 10 mg/kg, AUC0-last, mice, Compound P3 dosed PO 10 mg/kg, Plasma) of 3510 ng·h/mL and a Kp ([2]; mouse, in vivo, po, 10 mg/kg, mice, Compound P3 dosed PO 10 mg/kg, Liver) of 0.19. For the same molecule, the Kp ([2]; mouse, in vivo, po, 10 mg/kg, mice, Compound P3 dosed PO 10 mg/kg, Lung) was 69, the AUC(0-t) ([2]; mouse, in vivo, po, 10 mg/kg, AUClast, mouse Plasma, Compound P3 dosed PO 10 mg/kg) was 3510 ng·h/mL and the Cmax ([2]; mouse, in vivo, po, 10 mg/kg, Cmax, mice, Compound P3 dosed PO 10 mg/kg, Liver) was 240 ng/mL. For the same molecule, the Cmax ([2]; mouse, in vivo, po, 10 mg/kg, Cmax, mice, Compound P3 dosed PO 10 mg/kg, Lung) was 44200 ng/mL, the half-life ([2]; mouse, in vivo, po, 10 mg/kg, t1/2, mice, Compound P3 dosed PO 10 mg/kg, Liver) was 240 min and the half-life ([2]; mouse, in vivo, po, 10 mg/kg, t1/2, mice, Compound P3 dosed PO 10 mg/kg, Plasma) was 132 min. For the same molecule, the half-life ([2]; mouse, in vivo, po, 10 mg/kg, t½, mouse Plasma, Compound P3 dosed PO 10 mg/kg) was 132 min.
